Data reported in patent US12310967B2, “Compositions and methods of treatment for neurological disorders comprising motor neuron diseases” (Gliapharm SA, priority 2017, dated 2025).

Tests used:
[1] = In vivo pharmacokinetics (microdialysis of prefrontal cortex and plasma); design: species or system mouse; conditions: gavage 100 mg/kg; therapeutic range 100 nM to 1 uM
Experimental: Mice were anesthetized using isoflurane (2% and 800 mL/min 02). Before surgery, Finadyne (1 mg/kg, s.c.) was administered for analgesia during surgery and the post-surgical recovery period. A mixture of bupivacaine and epinephrine was used for local anesthesia of the incision site of the periost of the skull.
The animals were placed in a stereotaxic frame (Kopf instruments, USA). MetaQuant microdialysis probes with a 3 mm exposed polyacrylonitrile membrane (MQ-PAN 3/3, Brainlink, the Netherlands) were implanted into the prefrontal cortex (coordinates for the tip of the probe: AP=+2.0 mm (to bregma), lateral=−0.7 mm (to midline), ventral=−3.3 mm (to dura), with the incisor bar set at 0.0 mm and an angle of 8°). All coordinates were based on “The mouse brain in stereotaxic coordinates” by Paxinos and Franklin (2004). The probes were attached to the skull with a stainless steel screw and dental cement (Fuji Plus Capsules, Henry Schein, the Netherlands).
In the same surgical procedure, a catheter was placed into the jugular vein to accommodate blood sampling. An indwelling cannula was inserted into the right jugular vein, and exteriorized through an incision on top of the skull. […]
PK was measured for GP-04, GP-05, GP-07, GP-R1 and GP-P1 in the prefrontal cortex and plasma of wild type C56Bl/6 mice by CRO Brainsonline.

primary mouse astrocytes = assay: Extracellular lactate quantification, Example 2; format: cell-based; conditions: Astrocyte, 3 nM to 30 μM, 1.5 h, read-out: EC50 release of lactate
Experimental: Primary cultures of cerebrocortical astrocytes were obtained from 1 to 2-day-old OF1 mouse pups (Charles River). Briefly, cortices were isolated and minced in small pieces under a dissecting microscope. The cells were incubated for 30 min at 37° C. in a solution containing 20 U/ml papain, 1 mM L-cysteine and 10 kU/ml DNase I. After dissociation, papain activity was stopped by the addition of fetal calf serum (FCS). Single-cell suspension was then obtained by mechanical dissociation, which consisted in cells trituration in a DMEM D7777 medium supplemented with 44 mm NaHCO3, 10 ml/L antibiotic/antimycotic solution and 10% FCS. […]
Secretion of L-lactate was measured in the extracellular medium of 96-well plated astrocytes after 90 min stimulation (at 37° C., in 5% CO2/95% air conditions) with Vehicle (DMSO), the compounds of the invention (100 nM to 100 μM) or positive control. […] To quantify lactate concentrations in the extracellular medium, 200 μl of a 0.2M Glycine-semicarbazide buffer (pH 10) containing 3 mM NAD and 14 U/ml LDH was added to each well of a 96-well plate containing 30 μl aliquots of extracellular medium. […] Fluorescence intensity (340 nm excitation/450 nm emission), which represents the amount of NADH produced, was measured, and lactate concentration values were determined relative to a standard curve of L-lactate concentrations. […]

levels in the prefrontal cortex [1]	EC50 (primary mouse astrocytes)	Compound
at therapeutic range	–	COc1cc(C)c(Cl)cc1S(=O)(=O)NCc1ccncc1 [T5580243]
need chemical improvement	–	CC(=O)N1CCc2sc(S(=O)(=O)N3CCN(c4ccccc4C)CC3)cc2C1 [P025-0159]
–	590 nM	Cc1ccccc1NC(=O)C1CCCN(c2ncnc3oc(C)c(C)c23)C1 (stereo not drawn) [F228-0422]
